The values that follow come from patent publication US5104980A, “Chromogenic dibenzoxazepinone and dibenzothiazepinone enzyme substrates” (Miles Inc., priority 1989, dated 1992).

For the assay, the system named is β-galactosidase. As to the kind of experiment: cleavage of the chromogenic substrate by β-galactosidase in 50 mM phosphate buffer. The conditions noted are these: 50 mM phosphate buffer at pH 7.4 containing 5 mM MgCl2; in the presence of β-galactosidase. In kind it is biochemical. As to the method: When dissolved in 50 mM phosphate buffer at pH 7.4 containing 5 mM magnesium chloride (MgCl2) compound (23)+(24) (mixture) had λmax of 454 nm (^ε =22,000) and 344 nm (^ε =14,000).

For orientation: Km means the concentration of substrate that gives half-maximal velocity. “8-β-D-Galactopyranosyloxy-11-methyl-11H-dibenz[b,e] [1,4]oxazepin-1-one (23) and 2-β-D-galactopyranosyloxy-11-methyl-11H-dibenz[b,e][1,4]oxazepin-8-one (24) [(23)+(24)]”: the Km stood at 75 µM and the “rate (Kcat) of cleavage of the substrate to (20)” value is 1.32×10^4 mol. min^-1 /mol. active site.
